Assay results as given in patent US8263642B2, “Antimicrobial compounds and methods of use thereof” (Vanderbilt University, priority 2008, dated 2012).

Columns and labels:
[1] = system: HssRS-dependent hrtAB expression; assay: Luminescence-based assay to monitor HssRS-dependent hrtAB expression (phrtABlux reporter), Newman; assay type: cell-based, Staphylococcus aureus; settings: Newman; for Luminescence: raw luminescence value obtained in a luminometer; for activation at 0.0825 µM: Staphylococcus aureus, NEWMAN, read-out: % Lumi, luminescence induced by the compound compared to the heme control (82.5 nM) in the same plate
Procedure, shortened: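 S. aureus Newman wild type or ΔhssR carrying a hrtAB promoter–luxCDABE reporter (phrtABlux), grown in TSB with 10 μg/ml chloramphenicol at 37 °C. Light output read against 82.5 nM heme as the in-plate positive control. Activity given as % of heme-induced luminescence.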

[2] = system: hrtAB-driven expression of the xylE reporter gene; assay: XylE reporter assay (hrtAB promoter-xylE), Newman; assay type: cell-based, Staphylococcus aureus; settings: for XylE (0.05): level of XylE induction at 0.05 uM of the compound; for XylE (0.5): level of XylE induction at 0.5 uM of the compound; for XylE (5.0): level of XylE induction at 5.0 uM of the compound; for XylE (50.0): level of XylE induction at 50.0 uM of the compound
Procedure, shortened: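 S. aureus carrying hrtAB promoter-xylE fusion in pOS1 grown O/N at 37° C in TSB with chloramphenicol, lysed with lysostaphin. Lysate XylE activity read as 2-hydroxymuconic semialdehyde formation from 0.2 mM pyrocatechol (A375, every minute for 30 minutes), normalised to BCA protein; unit = 1 nmol/min/mg at 30° C.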

| Structure (SMILES) | Luminescence [1] | XylE (0.05) [2] | XylE (0.5) [2] | XylE (5.0) [2] | XylE (50.0) [2] | activation at 0.0825 µM [1] |
| --- | --- | --- | --- | --- | --- | --- |
| O=C(Nc1ccc(/N=N/c2ccccc2)cc1)c1cccnc1 | 3086 | 0 | 1 | 1 | 0.7 | – |
| C/C(=N/NC(=O)c1cccc(I)c1)c1ccccc1O | 5542 | 1 | 0.03 | 0.04 | 0.3 | – |
| CC(C)c1ccc(NS(=O)(=O)c2ccc3[nH]c(-c4ccccc4)nc3c2)cc1 | 2146 | 1 | 1 | 9 | 1 | – |
| CCOc1ccc(NC(=O)c2sc3nc(C)nc(N4CCCCC4)c3c2C)cc1 | 2277 | 1 | 0.07 | 1 | 1 | – |
| O=C(Nc1ccc(-c2csc(Nc3cccc(Cl)c3)n2)cc1)c1ccccc1 | 3586 | 1 | 0.07 | 1 | 0.08 | – |
| CCC(C)NC(=O)c1sc2nc(C)nc(N3CCCCC3)c2c1C (stereo not drawn) | 2301 | 1 | 1 | 1 | 7 | – |
| Brc1ccc2[nH]cc(-c3nc(-c4ccccc4)c(-c4ccccc4)[nH]3)c2c1 | 2549 | 0.4 | 2 | 1 | 1 | – |
| COc1ccc(OC(=O)c2ccc(N3C(=O)C4C5CCC(C5)C4C3=O)cc2)cc1 (stereo not drawn) | 3096 | – | 0.09 | 0.03 | 0.02 | – |
| O=C(Nc1c2c(nn1-c1ccc(Cl)cc1)CSC2)c1cccc(C(F)(F)F)c1 | 2866 | – | 0.03 | 0.04 | 0.06 | – |
| Cc1ccc(-c2nc(Nc3ccc4c(c3)OCO4)c3ccccc3n2)cc1 | 2101 | – | 0.04 | 0 | 0 | – |
| O=c1c2ccccc2nc(/C=C\c2ccccc2F)n1-c1ccccc1F | 3115 | – | 1 | 0 | 0 | – |
| Nc1ccccc1C(=O)Nc1nc2ccc(Cl)cc2s1 | 1741 | – | 0.01 | 0.03 | 0.04 | – |
| Cc1ccc2c(c1)C(c1ccccc1)=NNC(c1ccccc1)=N2 | 2763 | – | 0 | 0.2 | 0.4 | – |
| COc1ccccc1-c1csc(NC(=O)c2ccc(-c3ccccc3)cc2)n1 | 1704 | – | 0.05 | 1 | 1 | – |
| CC(C)(C)c1cc2c(c(C(C)(C)C)c1)OC(c1cc([N+](=O)[O-])ccc1O)N2 (stereo not drawn) | 1805 | – | 0.04 | 0 | 0.04 | – |
| Cc1c(NC(=O)c2ccc(Cl)c([N+](=O)[O-])c2)cccc1-c1nc2ccccc2o1 | 1912 | – | 0.06 | 0.1 | 0.5 | – |
| CCc1ccc2oc(-c3ccc(NC(=O)c4ccccc4OC)cc3)nc2c1 | 2392 | – | 0.05 | 2 | 3 | – |
| FC(F)(F)c1cccc(Nc2nc(-c3cccnc3)nc3ccccc23)c1 | 1616 | – | 0.02 | 0.05 | 0.02 | – |
| COc1ccc(C2CC(C3C(=O)c4ccccc4C3=O)=NN2)cc1 (stereo not drawn) | 1888 | – | 0.08 | 5 | 0.09 | – |
| O=C(NC(=S)Nc1ccc(-c2nc3ccccc3s2)cc1)c1ccccc1[N+](=O)[O-] [drawing 23] | 1794 | 0.09 | 0.07 | 0.08 | 0.2 | 374% |
| COc1ccc(Br)cc1C(=O)NC(=S)Nc1cc(C)c(C)cc1O [drawing 24] | 946 | 0.07 | 0.3 | 0.09 | 0.3 | 227% |
| Cc1cccc(C(=O)Nc2ccc(-c3nc4ccccc4o3)cc2)c1 [drawing 27] | 837 | 0.07 | 0.09 | 0.08 | 0.2 | 294% |
| Cc1ccc(O)c(NC(=O)c2nn3c(c2Br)NC(c2ccco2)CC3C(F)(F)F)c1 (stereo not drawn) [drawing 60] | 1949 | 0.07 | 0.7 | 11 | 1 | – |
| O=C(NC(=S)Nc1ccc(-c2nc3ccccc3s2)cc1)c1ccccc1[N+](=O)[O-] [drawing 61] | 1794 | 0.1 | 0.7 | 0.8 | 0.8 | – |
